For test [1], the target named is recombinant protein KIF18A (kinesin domain: aa 1-467) (Homo sapiens (Human), UniProt Q8NI77). Briefly: Assay on inhibition of KIF18A enzymatic activity (ADP-Glo). In kind it is biochemical. As to conditions: KIF18A 80 nM, ATP 80 μM, 3 h at room temperature, ADP-Glo luminescence; read-out: IC50 (μM), inhibitory effects of compounds on KIF18A enzymatic activity. The text has this: The recombinant protein KIF18A (kinesin domain: aa 1-467) used in this assay was expressed by the Bac-to-Bac baculovirus expression system from Invitrogen, and the resulting protein was purified for use in this assay (Seki, M. et al. 2003 Nucleic Acids Res.). Quantitative detection of KIF18A enzymatic activity was completed using an ADP-Glo™ kinase assay kit (Promega Inc). Related procedures strictly followed the product instructions, which are briefly described as follows:
The reaction system consisted of a test compound, the recombinant protein KIF18A (aa 1-467), ATP (Promega Inc), and an assay buffer. The test compound was prepared into a 0.5 mM stock solution using DMSO (Sigma Inc) and then serially diluted in DMSO. The assay buffer consisted of an aqueous solution of 15 mM Tris, 10 mM MgCl2 (Sigma Inc), 0.01% Pluronic F-68 (Life Technologies Inc), 1 μM paclitaxel (Cytoskeleton Inc), 30 μg/mL porcine tubulin (Cytoskeleton Inc), and 2% DMSO. The KIF18A protein (final concentration: 80 nM) and the compound at different concentrations (1 μL) were added to the prepared assay buffer (50 μL), and the mixture was incubated at room temperature for 15 min. Then, ATP (final concentration: 80 μM) was added to the reaction mixture, and the resulting mixture was incubated at room temperature for 3 h. After the reaction was completed, 5 μL of the ADP-Glo™ reagent and 2.5 μL of the reaction mixture were added to a 384-well plate (Grenier Inc). The resulting mixture was mixed homogeneously, then sealed by an aluminum foil sealing film, and incubated at room temperature in the dark for 40 min. Finally, 10 μL of the […] was added to each reaction well, and the mixture was incubated at room temperature in the dark for 40 min. After all reactions were completed, the luminescence values of the wells were read on a microplate reader (Molecular Device_SpectraMax Id5), and the inhibition ratios were calculated. The calculation formula for the inhibition rates was as follows: inhibition rate=(1−(compound group−blank group)/(negative control group−blank group))×100%. Then, based on the inhibition rates at different compound concentrations, the IC50 value of the test compound was calculated using the GraphPad Prism 8 software.

The test system of test [2] is NIH:OVCAR-3 cells. Briefly: Assay on inhibition of OVCAR3 tumor cell proliferation (CellTiter-Glo). In kind it is cell-based. As to conditions: Homo sapiens, OVCAR-3, 72 h, 3 days of drug treatment, read-out: IC50 (μM), inhibitory effects of compounds on tumor cell proliferation. How it is done:
NIH:OVCAR-3 cells (ATCC, Cat No. HTB-161, purchased from Co-Bier) were seeded into a T75 culture flask and cultured in an RPMI 1640 medium containing 20% FBS for 3 days in preparation for subsequent culturing and seeding into a 96-well plate for the cell proliferation assay.
The OVCAR3 cells were seeded at a density of 3000 cells/100 μL/well into the 96-well cell plate, and then the plate was incubated in an incubator (37° C., 5% CO2) for 18 h. On the second day, drug treatment was started. Serially diluted test compound solutions (each drug starting at a concentration of 10 μM, diluted in DMSO, with a dilution ratio of 1:3, and nine gradient points for each drug) or DMSO (negative control) was added to the medium in the plate at 100 μL/well, and a blank group was set up with only medium, but no seeded cell strains. After the drug addition, the plate was incubated in the incubator for another 3 days (37° C., 5% CO2). On the fourth day, plate detection was performed. To each well, 100 μL of CellTiter-Glo reagent (Promega G9243) was added. The plate was shaken for 5 min and then left to stand at room temperature for 5 min. The chemical luminescence signal value of each well was determined using a microplate reader (PerkinElmer EnVision®2104). Cell proliferation inhibition rate=(1−(compound group−blank group)/(DMSO group−blank group))×100%. Then, the IC50 value of each compound was calculated using the GraphPad Prism 8 software.

IC50 data for 17 molecules are collected here from patent US20250250264A1, “KIF18A INHIBITOR AND USE THEREOF” (Wuhan Humanwell Innovative Drug Research and Development …, priority 2022, published 2025).

Sequence of recombinant protein KIF18A (kinesin domain: aa 1-467) (Q8NI77 1-467): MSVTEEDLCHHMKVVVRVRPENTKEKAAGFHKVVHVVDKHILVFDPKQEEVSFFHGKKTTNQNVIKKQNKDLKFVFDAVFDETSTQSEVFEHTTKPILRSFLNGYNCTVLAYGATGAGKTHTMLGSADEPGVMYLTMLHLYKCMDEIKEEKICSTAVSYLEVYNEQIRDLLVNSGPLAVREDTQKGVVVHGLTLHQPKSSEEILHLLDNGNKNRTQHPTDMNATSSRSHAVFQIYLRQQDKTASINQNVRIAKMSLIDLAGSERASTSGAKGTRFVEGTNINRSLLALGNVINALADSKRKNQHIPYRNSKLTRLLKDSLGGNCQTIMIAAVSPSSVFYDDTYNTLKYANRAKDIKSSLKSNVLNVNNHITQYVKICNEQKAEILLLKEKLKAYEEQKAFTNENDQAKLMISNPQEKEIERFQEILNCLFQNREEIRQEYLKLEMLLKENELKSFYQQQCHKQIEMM
Sequence of recombinant protein KIF18A (kinesin domain: aa 1-467) (P02550 whole entry partner, the tested form may be a part): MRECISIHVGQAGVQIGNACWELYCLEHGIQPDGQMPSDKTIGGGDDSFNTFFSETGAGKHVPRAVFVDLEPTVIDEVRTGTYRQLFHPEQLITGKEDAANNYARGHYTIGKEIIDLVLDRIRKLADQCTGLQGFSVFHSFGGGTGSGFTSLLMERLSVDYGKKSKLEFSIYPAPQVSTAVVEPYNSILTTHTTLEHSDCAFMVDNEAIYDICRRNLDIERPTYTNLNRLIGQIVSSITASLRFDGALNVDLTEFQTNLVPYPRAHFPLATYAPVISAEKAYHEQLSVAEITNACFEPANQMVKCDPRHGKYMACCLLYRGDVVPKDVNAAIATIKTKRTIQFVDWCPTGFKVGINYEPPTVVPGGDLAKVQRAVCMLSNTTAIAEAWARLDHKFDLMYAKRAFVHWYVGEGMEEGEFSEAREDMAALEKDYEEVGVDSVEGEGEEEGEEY
Sequence of recombinant protein KIF18A (kinesin domain: aa 1-467) (P02554 whole entry partner, the tested form may be a part): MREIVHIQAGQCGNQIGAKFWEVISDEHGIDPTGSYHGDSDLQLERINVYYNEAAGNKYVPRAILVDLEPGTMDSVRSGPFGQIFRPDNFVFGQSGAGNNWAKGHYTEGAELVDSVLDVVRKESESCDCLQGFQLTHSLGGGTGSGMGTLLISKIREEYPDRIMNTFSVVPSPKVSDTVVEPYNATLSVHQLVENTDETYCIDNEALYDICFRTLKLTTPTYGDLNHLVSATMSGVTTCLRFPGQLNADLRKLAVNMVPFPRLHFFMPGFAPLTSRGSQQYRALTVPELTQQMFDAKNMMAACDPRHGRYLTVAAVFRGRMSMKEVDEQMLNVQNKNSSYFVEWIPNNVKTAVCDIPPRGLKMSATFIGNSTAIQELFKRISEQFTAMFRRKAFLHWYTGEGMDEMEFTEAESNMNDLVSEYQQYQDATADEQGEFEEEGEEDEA

Turning to `O=c1ccc(-c2cnn(-c3ccc(NS(=O)(=O)CCO)cc3N3CCC4(CC3)CC4)c2)nn1C1CC(F)(F)C1` [Example I-121, N-(4-(4-(1-(3,3-Difluorocyclobutyl)-6-oxo-1,6-dihydropyridazin-3-yl)-1H-pyrazol-1-yl)-3-(6-azaspiro[2.5]octan-6-yl)phenyl)-2-hydroxyethane-1-sulfonamide], the IC50 in test [1] was determined as 0.003 µM; in test [2], 0.056 µM.

As to `Cc1cc(-c2nnc(-c3ccc(NS(=O)(=O)CCO)cc3N3CCC4(CC3)CC4)o2)nc(N2CC3C(C2)C3(F)F)n1` (stereo not shown) [Example I-88, N-(4-(5-(2-(6,6-Difluoro-3-azabicyclo[3.1.0]hexan-3-yl)-6-methylpyrimidin-4-yl)-1,3,4-oxadiazol-2-yl)-3-(6-azaspiro[2.5]octan-6-yl)phenyl)-2-hydroxyethane-1-sulfonamide], the IC50 in test [1] stood at 0.001 µM; in test [2] it was 0.015 µM.

Take `Cc1cc(-c2nnc(-c3ccc(NS(=O)(=O)CCO)cc3N3CCC4(CC3)CC4)o2)nc(OCCC(F)(F)F)n1` [Example I-27, 2-Hydroxy-N-(4-(5-(6-methyl-2-(3,3,3-trifluoropropoxy)pyrimidin-4-yl)-1,3,4-oxadiazol-2-yl)-3-(6-azaspiro[2.5]octan-6-yl)phenyl)ethane-1-sulfonamide]: the values for the IC50 in test [1] and in test [2] were 0.001 µM and 0.079 µM, respectively.

Regarding `CCc1cc(-c2cnn(-c3ccc(NS(=O)(=O)CCO)cc3N3CCC4(CC3)CC4)c2)nc(N2CCC(F)(F)CC2)n1` [Example I-95, N-(4-(4-(2-(4,4-Difluoropiperidin-1-yl)-6-ethylpyrimidin-4-yl)-1H-pyrazol-1-yl)-3-(6-azaspiro[2.5]octan-6-yl)phenyl)-2-hydroxyethane-1-sulfonamide], the IC50 is 0.002 µM in test [1] and 0.412 µM in test [2].

Regarding `Cc1cc(-c2nnc(-c3ccc(NS(=O)(=O)CCO)cc3N3CCC4(CC3)CC4)o2)nc(N2CCC(F)(F)CC2)n1` [Example I-2, N-(4-(5-(2-(4,4-Difluoropiperidin-1-yl)-6-methylpyrimidin-4-yl)-1,3,4-oxadiazol-2-yl)-3-(6-azaspiro[2.5]octan-6-yl)phenyl)-2-hydroxyethane-1-sulfonamide], the IC50 is 0.002 µM in test [1] and 0.08 µM in test [2].

For the molecule `Cc1cc(-c2cnn(-c3ccc(NS(=O)(=O)CCO)cc3N3CCC4(CC3)CC4)c2)nc(N2CCC(F)CC2)n1` [Example I-114, N-(4-(4-(2-(4-Fluoropiperidin-1-yl)-6-methylpyrimidin-4-yl)-1H-pyrazol-1-yl)-3-(6-azaspiro[2.5]octan-6-yl)phenyl)-2-hydroxyethane-1-sulfonamide], the figures for the IC50 in test [1] and in test [2] were 0.007 µM and 0.076 µM, respectively.

Turning to `Cc1cc(-c2nnc(-c3ccc(NS(=O)(=O)CCO)cc3N3CCC4(CC3)CC4)o2)nc(N2CCO[C@H](C)C2)c1` [Example I-1, (R)-2-Hydroxy-N-(4-(5-(4-methyl-6-(2-methylmorpholino)pyridin-2-yl)-1,3,4-oxadiazol-2-yl)-3-(6-azaspiro[2.5]octan-6-yl)phenyl)ethane-1-sulfonamide], the values for the IC50 in test [1] and in test [2] were 0.033 µM and 0.045 µM, respectively.

On to `Cc1cc(-c2cnn(-c3ccc(NS(=O)(=O)CCO)cc3N3CCC4(CC3)CC4)c2)nc(N2CC3C(C2)C3(F)F)n1` (stereo not shown) [Example I-113, N-(4-(4-(2-(6,6-Difluoro-3-azabicyclo[3.1.0]hexan-3-yl)-6-methylpyrimidin-4-yl)-1H-pyrazol-1-yl)-3-(6-azaspiro[2.5]octan-6-yl)phenyl)-2-hydroxyethane-1-sulfonamide], for which the results for the IC50 in test [1] and in test [2] were 0.007 µM and 0.051 µM, respectively.

Turning to `Cc1cc(-c2nnc(-c3ccc(NS(=O)(=O)CCO)cc3N3CCC4(CC3)CC4)o2)nc(N2CCC(F)(F)C2)n1` [Example I-5, N-(4-(5-(2-(3,3-Difluoropyrrolidin-1-yl)-6-methylpyrimidin-4-yl)-1,3,4-oxadiazol-2-yl)-3-(6-azaspiro[2.5]octan-6-yl)phenyl)-2-hydroxyethane-1-sulfonamide], the IC50 was found to be 0.007 µM in test [1] and 0.186 µM in test [2].

Regarding `O=S(=O)(CCO)Nc1ccc(-n2cc(-c3ncnc(N4CCC(F)(F)CC4)n3)cn2)c(N2CCC3(CC2)CC3)c1` [Example I-130, N-(4-(4-(4-(4,4-Difluoropiperidin-1-yl)-1,3,5-triazin-2-yl)-1H-pyrazol-1-yl)-3-(6-azaspiro [2.5]octan-6-yl)phenyl)-2-hydroxyethanesulfonamide], the IC50 in test [1] came out at 0.009 µM; in test [2], 0.142 µM.

Regarding `Cc1cc(-c2nnc(-c3ccc(NS(=O)(=O)CCO)cc3N3CCC4(CC3)CC4)o2)nc(N2CCC(F)(F)CC2)c1` [Example I-87, N-(4-(5-(6-(4,4-Difluoropiperidin-1-yl)-4-methylpyridin-2-yl)-1,3,4-oxadiazol-2-yl)-3-(6-azaspiro [2.5]octan-6-yl)phenyl)-2-hydroxyethanesulfonamide], the figures for the IC50 in test [1] and in test [2] were 0.004 µM and 0.144 µM, respectively.

`Cc1cc(-c2cnn(-c3ccc(NS(=O)(=O)CCO)cc3N3CCC(F)(F)CC3)c2)nc(N2CCC(F)(F)CC2)n1` [Example I-106, N-(3-(4,4-Difluoropiperidin-1-yl)-4-(4-(2-(4,4-difluoropiperidin-1-yl)-6-methylpyrimidin-4-yl)-1H-pyrazol-1-yl)phenyl)-2-hydroxyethane-1-sulfonamide]: the IC50 worked out at 0.011 µM in test [1] and 0.208 µM in test [2].

Consider `O=S(=O)(CCO)Nc1ccc(-n2cc(-c3cc(C(F)F)nc(N4CCC(F)(F)CC4)c3)cn2)c(N2CCC3(CC2)CC3)c1` [Example I-107, N-(4-(4-(2-(Difluoromethyl)-6-(4,4-difluoropiperidin-1-yl)pyridin-4-yl)-1H-pyrazol-1-yl)-3-(6-azaspiro[2.5]octan-6-yl)phenyl)-2-hydroxyethane-1-sulfonamide], for which the IC50 in test [1] was determined as 0.008 µM; in test [2], 0.213 µM.

`Cc1cc(-c2nnc(-c3ccc(NS(=O)(=O)CCO)cc3N3CCC4(CC3)CC4)o2)cc(N2CCC(F)CC2)n1` [Example I-105, N-(4-(5-(2-(4-Fluoropiperidin-1-yl)-6-methylpyridin-4-yl)-1,3,4-oxadiazol-2-yl)-3-(6-azaspiro [2.5]octan-6-yl)phenyl)-2-hydroxyethane-sulfonamide]: the IC50 in test [1] was 0.002 µM; in test [2], 0.033 µM.

For the molecule `Cc1cc(-c2cnn(-c3ccc(NS(=O)(=O)CCO)cc3N3CCC4(CC3)CC4)c2)nc(C2CCC(F)(F)CC2)n1` [Example I-110, N-(4-(4-(2-(4,4-Difluorocyclohexyl)-6-methylpyrimidin-4-yl)-1H-pyrazol-1-yl)-3-(6-azaspiro[2.5]octan-6-yl)phenyl)-2-hydroxyethane-1-sulfonamide], the results for the IC50 in test [1] and in test [2] were 0.002 µM and 0.061 µM, respectively.

`Cc1cc(-c2nnc(-c3ccc(NS(=O)(=O)[C@H](C)CO)cc3N3CCC4(CC3)CC4)o2)nc(N2CCC(F)(F)CC2)n1` [Example I-40, (R)—N-(4-(5-(2-(4,4-Difluoropiperidin-1-yl)-6-methylpyrimidin-4-yl)-1,3,4-oxadiazol-2-yl)-3-(6-azaspiro[2.5]octan-6-yl)phenyl)-1-hydroxypropane-2-sulfonamide]: the IC50 in test [1] was found to be 0.011 µM; in test [2], 0.076 µM.

As for `Cc1cc(-c2cnn(-c3ccc(NS(=O)(=O)CCO)cc3N3CCC4(CC3)CC4)c2)nc(N2CCCC2)n1` [Example I-116, N-(4-(4-(6-Methyl-2-(pyrrolidin-1-yl)pyrimidin-4-yl)-1H-pyrazol-1-yl)-3-(6-azaspiro[2.5]octan-6-yl)phenyl)-2-hydroxyethane-1-sulfonamide], the IC50 in test [1] came out at 0.013 µM; in test [2], 0.389 µM.
